Compound in one assay: O=[As]([O-])(O)O.[K+] [potassium arsenate]
In words: thermal stability z-score vs DMSO; higher = more thermally stabilized by treatment. The conditions noted are these: HeLa; arsenate concentration 1 mM. The procedure:
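Cellular thermal proteome profiling in HeLa cells treated with 1 mM arsenate for 1 h (DMSO pretreatment), heated to ten temperatures (37-66.3 °C). Soluble protein was quantified by TMT mass spectrometry relative to DMSO controls; the thermal stability score was transformed to a z-score; mean of n = 3 experiments.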

Compound in another assay: NC(=O)CCCCC1CCSS1 [lipoamide]
Described as above. The note with it: HeLa, lipoamide concentration 100 µM. The procedure:
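Cellular thermal proteome profiling in HeLa cells. Cells were treated with 100 µM lipoamide for 1 h, with or without 1 mM arsenate for a further 1 h, then heated to ten temperatures (37-66.3 °C), and soluble protein was quantified by TMT mass spectrometry relative to 0.1% DMSO controls. The thermal stability score (sum of log2 fold changes minus the abundance score) was transformed to a z-score; mean of n = 3 experiments.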

Where [1] appears, read: arsenate co-treatment: 1 mM arsenate 1 h.

These results are taken from the supplement of paper PMC12463676, “Small-molecule dissolution of stress granules by redox modulation benefits ALS models” (Nature Chemical Biology, 2025).
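Also: each temperature applied for 3 min, abundance score taken as mean log2 fold change at the two lowest temperatures, z-score obtained by mean subtraction and division by SD.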

Chain of UniProt Q6RW13 (Q6RW13 whole entry): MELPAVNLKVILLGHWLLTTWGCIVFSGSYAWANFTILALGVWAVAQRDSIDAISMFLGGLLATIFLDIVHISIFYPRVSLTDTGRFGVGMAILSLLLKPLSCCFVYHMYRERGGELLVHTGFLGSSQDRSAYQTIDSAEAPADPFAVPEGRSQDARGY
Chain of UniProt Q96SZ5 (Q96SZ5 whole entry): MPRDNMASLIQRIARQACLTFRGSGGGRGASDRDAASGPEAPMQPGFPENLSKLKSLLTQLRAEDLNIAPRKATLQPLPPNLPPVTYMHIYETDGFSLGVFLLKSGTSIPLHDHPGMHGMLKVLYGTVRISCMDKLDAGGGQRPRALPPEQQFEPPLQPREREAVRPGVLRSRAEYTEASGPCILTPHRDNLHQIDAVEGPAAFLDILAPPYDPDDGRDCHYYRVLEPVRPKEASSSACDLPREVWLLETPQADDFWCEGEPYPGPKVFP
Chain of UniProt O15120 (O15120 whole entry): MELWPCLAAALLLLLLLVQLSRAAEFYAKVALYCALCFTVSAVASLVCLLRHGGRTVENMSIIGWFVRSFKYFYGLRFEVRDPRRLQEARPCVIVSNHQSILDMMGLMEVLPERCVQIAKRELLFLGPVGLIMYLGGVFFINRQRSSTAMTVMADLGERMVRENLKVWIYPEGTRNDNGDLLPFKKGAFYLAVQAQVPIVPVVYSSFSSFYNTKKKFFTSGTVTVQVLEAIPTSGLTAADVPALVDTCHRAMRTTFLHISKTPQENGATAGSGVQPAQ
Chain of UniProt P55263 (P55263 whole entry, looked up): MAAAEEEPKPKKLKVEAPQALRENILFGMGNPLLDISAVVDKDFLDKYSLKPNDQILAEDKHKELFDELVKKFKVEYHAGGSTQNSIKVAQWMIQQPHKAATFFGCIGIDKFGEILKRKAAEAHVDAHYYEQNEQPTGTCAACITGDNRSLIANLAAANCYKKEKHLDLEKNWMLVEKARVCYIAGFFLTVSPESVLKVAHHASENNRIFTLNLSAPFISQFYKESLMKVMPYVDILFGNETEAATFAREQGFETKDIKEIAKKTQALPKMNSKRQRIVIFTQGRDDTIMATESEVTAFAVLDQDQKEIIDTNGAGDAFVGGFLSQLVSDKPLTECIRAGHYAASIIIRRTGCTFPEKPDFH
Chain of UniProt Q9Y4W6 (Q9Y4W6 whole entry): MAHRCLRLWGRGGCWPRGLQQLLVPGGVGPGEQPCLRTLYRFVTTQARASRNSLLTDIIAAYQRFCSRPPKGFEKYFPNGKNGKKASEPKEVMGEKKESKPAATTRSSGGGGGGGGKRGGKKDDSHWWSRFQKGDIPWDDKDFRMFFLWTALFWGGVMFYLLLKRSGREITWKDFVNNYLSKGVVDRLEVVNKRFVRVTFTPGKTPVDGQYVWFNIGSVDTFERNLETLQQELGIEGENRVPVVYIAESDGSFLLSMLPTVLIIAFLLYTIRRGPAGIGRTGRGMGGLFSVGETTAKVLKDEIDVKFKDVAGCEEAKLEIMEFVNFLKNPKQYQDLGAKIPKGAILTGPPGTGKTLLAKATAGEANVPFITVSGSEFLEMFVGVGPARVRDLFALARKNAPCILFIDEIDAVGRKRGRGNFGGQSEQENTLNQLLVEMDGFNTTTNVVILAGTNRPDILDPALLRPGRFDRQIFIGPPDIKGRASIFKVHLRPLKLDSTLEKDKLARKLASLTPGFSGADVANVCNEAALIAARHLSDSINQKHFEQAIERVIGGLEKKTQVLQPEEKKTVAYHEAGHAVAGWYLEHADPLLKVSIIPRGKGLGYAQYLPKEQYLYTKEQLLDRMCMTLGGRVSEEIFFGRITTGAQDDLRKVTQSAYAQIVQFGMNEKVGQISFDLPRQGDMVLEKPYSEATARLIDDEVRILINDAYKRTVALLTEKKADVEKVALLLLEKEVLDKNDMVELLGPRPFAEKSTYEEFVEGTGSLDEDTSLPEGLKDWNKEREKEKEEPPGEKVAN
Chain of UniProt Q9NRZ7 (Q9NRZ7 whole entry): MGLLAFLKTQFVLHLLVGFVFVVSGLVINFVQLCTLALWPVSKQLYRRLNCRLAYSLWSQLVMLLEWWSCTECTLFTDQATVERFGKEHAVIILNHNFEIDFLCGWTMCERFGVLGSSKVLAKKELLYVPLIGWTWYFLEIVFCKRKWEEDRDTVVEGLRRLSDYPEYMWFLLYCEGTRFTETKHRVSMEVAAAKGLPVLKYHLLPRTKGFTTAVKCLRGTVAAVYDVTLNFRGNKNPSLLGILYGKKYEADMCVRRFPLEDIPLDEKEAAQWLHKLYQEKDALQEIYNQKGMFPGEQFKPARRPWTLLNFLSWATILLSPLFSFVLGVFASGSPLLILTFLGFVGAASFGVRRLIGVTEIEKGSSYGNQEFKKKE
Chain of UniProt P30520 (P30520 whole entry): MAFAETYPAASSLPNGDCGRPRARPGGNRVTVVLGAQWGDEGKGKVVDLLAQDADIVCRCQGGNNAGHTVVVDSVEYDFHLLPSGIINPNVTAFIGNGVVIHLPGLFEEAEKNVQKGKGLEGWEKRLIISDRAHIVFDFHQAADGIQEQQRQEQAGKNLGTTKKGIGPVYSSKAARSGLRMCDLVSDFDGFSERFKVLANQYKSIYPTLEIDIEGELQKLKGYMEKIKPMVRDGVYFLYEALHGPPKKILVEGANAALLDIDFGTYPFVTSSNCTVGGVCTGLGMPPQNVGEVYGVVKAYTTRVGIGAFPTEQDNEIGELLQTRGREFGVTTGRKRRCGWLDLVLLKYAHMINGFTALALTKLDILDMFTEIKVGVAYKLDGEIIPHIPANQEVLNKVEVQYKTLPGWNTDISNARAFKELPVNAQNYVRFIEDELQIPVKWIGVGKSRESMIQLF
Chain of UniProt Q9UKV8 (Q9UKV8 whole entry): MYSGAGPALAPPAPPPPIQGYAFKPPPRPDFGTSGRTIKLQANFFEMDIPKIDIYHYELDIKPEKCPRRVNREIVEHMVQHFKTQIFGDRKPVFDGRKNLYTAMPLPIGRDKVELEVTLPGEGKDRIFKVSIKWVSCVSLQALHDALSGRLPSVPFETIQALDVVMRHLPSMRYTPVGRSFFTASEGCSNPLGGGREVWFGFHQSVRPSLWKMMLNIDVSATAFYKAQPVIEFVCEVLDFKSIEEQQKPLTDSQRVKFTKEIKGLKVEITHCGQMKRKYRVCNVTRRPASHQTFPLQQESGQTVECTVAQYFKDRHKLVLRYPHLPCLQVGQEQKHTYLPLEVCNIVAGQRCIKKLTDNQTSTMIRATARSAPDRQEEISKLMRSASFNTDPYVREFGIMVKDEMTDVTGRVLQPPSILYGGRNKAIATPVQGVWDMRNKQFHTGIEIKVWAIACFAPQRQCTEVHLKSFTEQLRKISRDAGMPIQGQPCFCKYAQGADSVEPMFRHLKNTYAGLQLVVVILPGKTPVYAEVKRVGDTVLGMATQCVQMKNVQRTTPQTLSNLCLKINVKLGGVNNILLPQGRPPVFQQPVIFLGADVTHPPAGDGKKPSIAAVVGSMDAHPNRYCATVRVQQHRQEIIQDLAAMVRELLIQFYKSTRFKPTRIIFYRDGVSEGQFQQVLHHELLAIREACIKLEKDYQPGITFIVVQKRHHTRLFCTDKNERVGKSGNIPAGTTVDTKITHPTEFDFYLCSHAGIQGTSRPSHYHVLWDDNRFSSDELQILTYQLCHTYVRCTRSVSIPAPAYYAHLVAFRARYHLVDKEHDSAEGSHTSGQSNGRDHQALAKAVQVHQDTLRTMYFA
Chain of UniProt O95831 (O95831 whole entry): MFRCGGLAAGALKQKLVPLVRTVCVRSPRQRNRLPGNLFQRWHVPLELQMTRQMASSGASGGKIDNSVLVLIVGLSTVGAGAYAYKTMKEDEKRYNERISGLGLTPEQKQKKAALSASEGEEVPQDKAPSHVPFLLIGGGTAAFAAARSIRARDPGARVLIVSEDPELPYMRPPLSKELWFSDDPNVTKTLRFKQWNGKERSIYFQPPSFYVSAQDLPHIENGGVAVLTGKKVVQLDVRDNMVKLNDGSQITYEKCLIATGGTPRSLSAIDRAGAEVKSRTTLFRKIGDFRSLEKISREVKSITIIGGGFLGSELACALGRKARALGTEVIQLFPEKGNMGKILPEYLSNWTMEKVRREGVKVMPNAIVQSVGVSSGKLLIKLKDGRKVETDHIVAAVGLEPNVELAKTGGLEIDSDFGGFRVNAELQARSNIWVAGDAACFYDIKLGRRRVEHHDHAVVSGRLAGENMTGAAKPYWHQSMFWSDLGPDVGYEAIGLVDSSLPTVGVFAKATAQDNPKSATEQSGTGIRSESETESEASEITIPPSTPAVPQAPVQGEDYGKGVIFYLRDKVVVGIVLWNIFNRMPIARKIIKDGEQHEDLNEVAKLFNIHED
Chain of UniProt Q96HN2 (Q96HN2 whole entry): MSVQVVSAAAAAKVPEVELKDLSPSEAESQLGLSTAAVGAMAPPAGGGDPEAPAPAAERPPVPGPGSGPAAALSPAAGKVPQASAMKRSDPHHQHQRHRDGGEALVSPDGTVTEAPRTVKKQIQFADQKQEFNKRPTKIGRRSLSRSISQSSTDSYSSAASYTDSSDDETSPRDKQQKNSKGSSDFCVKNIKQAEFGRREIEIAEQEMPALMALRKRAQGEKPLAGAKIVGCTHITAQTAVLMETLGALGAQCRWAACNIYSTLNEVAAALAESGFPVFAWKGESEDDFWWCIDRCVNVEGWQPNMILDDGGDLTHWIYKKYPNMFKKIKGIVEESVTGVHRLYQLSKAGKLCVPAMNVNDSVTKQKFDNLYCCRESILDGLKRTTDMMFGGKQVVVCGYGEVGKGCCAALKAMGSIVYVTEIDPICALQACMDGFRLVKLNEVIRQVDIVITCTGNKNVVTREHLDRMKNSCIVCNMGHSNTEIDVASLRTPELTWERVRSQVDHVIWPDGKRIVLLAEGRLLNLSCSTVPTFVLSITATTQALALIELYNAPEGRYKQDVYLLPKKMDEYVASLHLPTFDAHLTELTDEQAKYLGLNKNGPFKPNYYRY
Chain of UniProt O95994 (O95994 whole entry): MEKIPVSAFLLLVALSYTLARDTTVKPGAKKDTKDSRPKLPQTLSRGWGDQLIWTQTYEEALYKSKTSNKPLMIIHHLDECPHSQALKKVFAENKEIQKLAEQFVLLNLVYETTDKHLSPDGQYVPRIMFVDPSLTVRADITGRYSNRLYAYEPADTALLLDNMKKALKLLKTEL

With ADI1 (UniProt Q9BV57), the thermal stability z-score was -0.317 in the assay with potassium arsenate, 0.768 with lipoamide (setting [1]) and 0.913 in the assay with lipoamide (arsenate co-treatment: none).
The like results for ADK (UniProt P55263) were, in that order, -1.35, -0.131 and -0.279.
Take ADNP (UniProt Q9H2P0): the results for the thermal stability z-score in the assay with potassium arsenate, in the assay with lipoamide (setting [1]) and with lipoamide (arsenate co-treatment: none) were -0.271, -0.0133 and -0.0224, respectively.
The matching figures for ADO (UniProt Q96SZ5): -0.401, 1.62 and 1.31.
Take ADPGK (UniProt Q9BRR6): the thermal stability z-score was -0.315 in the assay with potassium arsenate, -1.02 with lipoamide (setting [1]) and -0.44 in the assay with lipoamide (arsenate co-treatment: none).
Consider ADPRHL2 (UniProt Q9NX46), for which the thermal stability z-score was -0.268 in the assay with potassium arsenate, 0.435 in the assay with lipoamide (setting [1]) and -0.109 with lipoamide (arsenate co-treatment: none).
ADRBK1 (UniProt P25098): the thermal stability z-score stood at 0.052 in the assay with potassium arsenate, 0.556 with lipoamide (setting [1]) and 0.421 in the assay with lipoamide (arsenate co-treatment: none).
Turning to ADRM1 (UniProt Q16186), the thermal stability z-score with potassium arsenate stood at 0.823; with lipoamide (setting [1]), 1.21; with lipoamide (arsenate co-treatment: none), 0.976.
For the target ADSL (UniProt P30566), the thermal stability z-score with potassium arsenate was -1.53; in the assay with lipoamide (setting [1]), -0.0252; with lipoamide (arsenate co-treatment: none), -0.429.
Regarding ADSS (UniProt P30520), the thermal stability z-score was -1.32 with potassium arsenate, 0.449 with lipoamide (setting [1]) and -0.203 with lipoamide (arsenate co-treatment: none).
The like results for ADSSL1 (UniProt Q8N142) were, in that order, 0.237, 0.111 and 0.223.
For AEBP2 (UniProt Q6ZN18), the thermal stability z-score in the assay with potassium arsenate was -0.00304; in the assay with lipoamide (setting [1]) it was -0.0576; with lipoamide (arsenate co-treatment: none) it was -0.195.
Consider AES (UniProt Q08117), for which the thermal stability z-score was determined as 0.378 in the assay with potassium arsenate, 0.656 in the assay with lipoamide (setting [1]) and 0.111 with lipoamide (arsenate co-treatment: none).
As to AFAP1 (UniProt Q8N556), the thermal stability z-score in the assay with potassium arsenate is -0.957; with lipoamide (setting [1]), 0.411; in the assay with lipoamide (arsenate co-treatment: none), -0.0977.
As to AFG3L2 (UniProt Q9Y4W6), the figures for the thermal stability z-score with potassium arsenate, with lipoamide (setting [1]) and in the assay with lipoamide (arsenate co-treatment: none) were -0.123, -0.688 and -0.0469, respectively.
For the target AFTPH (UniProt Q6ULP2), the thermal stability z-score with potassium arsenate was 0.102; in the assay with lipoamide (setting [1]) it was -0.18; in the assay with lipoamide (arsenate co-treatment: none), 0.15.
As to AGAP1 (UniProt Q9UPQ3), the thermal stability z-score is -1.91 with potassium arsenate, -1.59 with lipoamide (setting [1]) and -2.08 with lipoamide (arsenate co-treatment: none).
Take AGAP3 (UniProt Q96P47): the thermal stability z-score with potassium arsenate is -0.25; with lipoamide (setting [1]), 0.0887; with lipoamide (arsenate co-treatment: none) it was -0.377.
With AGFG1 (UniProt P52594), the thermal stability z-score was -0.387 in the assay with potassium arsenate, -0.348 with lipoamide (setting [1]) and -0.424 with lipoamide (arsenate co-treatment: none).
For the target AGFG2 (UniProt O95081), the thermal stability z-score with potassium arsenate is -0.791; with lipoamide (setting [1]), -0.423; with lipoamide (arsenate co-treatment: none) it was -0.0283.
Consider AGK (UniProt Q53H12), for which the thermal stability z-score is 0.573 with potassium arsenate, 0.541 in the assay with lipoamide (setting [1]) and 0.38 in the assay with lipoamide (arsenate co-treatment: none).
The like results for AGL (UniProt P35573) were, in that order, 0.0621, 0.414 and 0.398.
The matching figures for AGMAT (UniProt Q9BSE5): 0.92, 0.292 and 0.565.
The like results for AGO1 (UniProt Q9UL18) were, in that order, -0.337, -0.0919 and -0.396.
Regarding AGO2 (UniProt Q9UKV8), the thermal stability z-score in the assay with potassium arsenate was -0.204; in the assay with lipoamide (setting [1]) it was 0.826; in the assay with lipoamide (arsenate co-treatment: none) it was 0.402.
The like results for AGPAT1 (UniProt Q99943) were, in that order, 0.0795, -0.0471 and -0.591.
Take AGPAT2 (UniProt O15120): the thermal stability z-score with potassium arsenate is 0.392; with lipoamide (setting [1]), -0.401; in the assay with lipoamide (arsenate co-treatment: none), 0.198.
Consider AGPAT3 (UniProt Q9NRZ7), for which the results for the thermal stability z-score with potassium arsenate, with lipoamide (setting [1]) and with lipoamide (arsenate co-treatment: none) were -0.114, -0.336 and 0.305, respectively.
For AGPAT5 (UniProt Q9NUQ2), the thermal stability z-score in the assay with potassium arsenate is -0.259; in the assay with lipoamide (setting [1]), -0.478; with lipoamide (arsenate co-treatment: none), -0.94.
As to AGPS (UniProt O00116), the thermal stability z-score was -0.854 with potassium arsenate, -1.96 with lipoamide (setting [1]) and -1.23 with lipoamide (arsenate co-treatment: none).
For the target AGR2 (UniProt O95994), the thermal stability z-score is -0.355 with potassium arsenate, -2.84 with lipoamide (setting [1]) and -2.57 in the assay with lipoamide (arsenate co-treatment: none).
Consider AGRN (UniProt O00468), for which the thermal stability z-score with potassium arsenate was 0.582; in the assay with lipoamide (setting [1]) it was -0.718; with lipoamide (arsenate co-treatment: none), -1.6.
For the target AGTRAP (UniProt Q6RW13), the figures for the thermal stability z-score with potassium arsenate, with lipoamide (setting [1]) and with lipoamide (arsenate co-treatment: none) were 1.66, 0.719 and 0.743, respectively.
The like results for AHCY (UniProt P23526) were, in that order, -1.82, 0.488 and 0.146.
As to AHCYL1 (UniProt O43865), the thermal stability z-score is -6.61 with potassium arsenate, 0.156 in the assay with lipoamide (setting [1]) and -0.134 with lipoamide (arsenate co-treatment: none).
Take AHCYL2 (UniProt Q96HN2): the thermal stability z-score with potassium arsenate was -1.74; in the assay with lipoamide (setting [1]) it was 0.295; with lipoamide (arsenate co-treatment: none), 0.547.
As to AHNAK2 (UniProt Q8IVF2), the thermal stability z-score is 1.42 in the assay with potassium arsenate, 0.924 with lipoamide (setting [1]) and 0.899 with lipoamide (arsenate co-treatment: none).
The matching figures for AHNAK (UniProt Q09666): 2.03, 1.35 and 1.69.
AHSA1 (UniProt O95433): the values for the thermal stability z-score with potassium arsenate, in the assay with lipoamide (setting [1]) and in the assay with lipoamide (arsenate co-treatment: none) were 0.423, 0.722 and 0.671, respectively.
Regarding AIDA (UniProt Q96BJ3), the thermal stability z-score was -0.0785 with potassium arsenate, -0.00864 with lipoamide (setting [1]) and 0.00569 in the assay with lipoamide (arsenate co-treatment: none).
Take AIF1L (UniProt Q9BQI0): the figures for the thermal stability z-score with potassium arsenate, with lipoamide (setting [1]) and with lipoamide (arsenate co-treatment: none) were -0.374, -0.218 and -0.305, respectively.
The matching figures for AIFM1 (UniProt O95831): 0.186, -0.464 and -0.558.
As for AIFM2 (UniProt Q9BRQ8), the thermal stability z-score is 0.776 with potassium arsenate, 0.556 with lipoamide (setting [1]) and -0.298 in the assay with lipoamide (arsenate co-treatment: none).
